The assay addresses T1, soluble human FcRn (Homo sapiens, UniProt P55899).
T1 construct: Soluble human FcRn was expressed and purified by Biogen-Idec as previously described (29)
Put plainly: SPR (Biacore) affinity of peptides for immobilized soluble human FcRn. The format is binding. As to the method:
SPR analyses were conducted using a Biacore 3000 or T100 instrument. Research-grade CM5 sensor chips and all coupling reagents for immobilization were purchased from Biacore. All proteins were cross-linked to the dextran surface of a CM5 sensor chip by standard amine coupling chemistry as recommended by Biacore. […] Binding experiments were performed at pH 6.0 or 7.4 using 50 mM phosphate, 100 mM sodium chloride and 0.01% surfactant P20. […] Bound albumin protein was then allowed to dissociate from the chip for 5 minutes with running buffer. Any remaining albumin was removed from the chip with a 60 second injection (2 cycles) of pH 8.0 Tris-HCl regeneration buffer (1 M Tris pH 8.0) at 25 μL/min flow rate. The binding responses recorded near the end of the association phase were plotted as a function of concentration. Equilibrium dissociation constants (KD), were derived from sensorgrams using the 1:1 binding model of BIAevaluation software 4.1.
(Surface plasmon resonance follows binding to a sensor surface in real time, without labels.)

The mark [1] stands for this setting: Table 2, pH 6, immobilized shFcRn, data fit steady state or 2 site, read-out: Kd, pH 6** Biacore.
[2] abbreviates: Table 1, pH 6, shFcRn immobilized on the sensor chip, steady state fit, read-out: Kd, pH 6** Biacore.
Where [3] appears, read: Table 2, pH 7.4, data only 100 uM, therefore Kd may be higher, read-out: Kd, pH 7.4 Biacore.

This note sets out measurements from US10588935B2, “FC receptor (FcRn) binding peptides and uses thereof” (THE BRIGHAM AND WOMEN'S HOSPITAL, INC., priority 2013, dated 2020).

The structures appear in SMILES notation. Values joined by “and” are separate entries in the source; they are usually repeats but may differ in a detail not shown here. Identical values can stand only once. Like-named read-outs stand apart in the source and are kept apart here. Bridge positions count the residues as written; N and C are the ends. Peptide text beside a SMILES is read from it. Where only a bound is given, the exact number is not on record here.

T1 sequence (P55899 24-297 limits assumed): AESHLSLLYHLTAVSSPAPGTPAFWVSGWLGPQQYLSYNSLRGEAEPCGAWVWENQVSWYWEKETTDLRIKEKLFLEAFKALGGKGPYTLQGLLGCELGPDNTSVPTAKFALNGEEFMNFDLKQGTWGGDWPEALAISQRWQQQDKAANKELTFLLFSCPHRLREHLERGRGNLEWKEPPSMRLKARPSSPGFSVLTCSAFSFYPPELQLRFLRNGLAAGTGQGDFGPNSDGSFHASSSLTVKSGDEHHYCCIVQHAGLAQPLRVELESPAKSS
T1 sequence (P61769 21-119 partner): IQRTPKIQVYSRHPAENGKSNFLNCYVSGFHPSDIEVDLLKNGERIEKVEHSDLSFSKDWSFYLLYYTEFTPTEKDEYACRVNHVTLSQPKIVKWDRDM

Regarding `CSCC[C@H](NC(=O)[C@@H](NC(C)=O)C(C)C)C(=O)N[C@@H](Cc1c[nH]cn1)C(=O)N[C@H]1CSSC[C@@H](C(=O)N[C@@H](CC(=O)O)C(=O)N[C@@H](Cc2ccc(O)cc2)C(=O)NCC(N)=O)NC(=O)[C@H](CCCNC(=N)N)NC(=O)[C@H](Cc2ccccc2)NC(=O)[C@H](CCC(=O)O)NC(=O)[C@H](CCC(=O)O)NC(=O)[C@H](CC(=O)O)NC(=O)[C@H](Cc2c[nH]c3ccccc23)NC(=O)[C@H](Cc2ccccc2)NC1=O` [SYN1381] (Ac-VMHCFWDEEFRCDYG-NH2; disulfide 4-12 (inferred)), the “Kd Ratio 7.4/6.0” value (Table 2) is given as 82.

Regarding `CSCC[C@H](NC(=O)[C@H](Cc1ccc(O)cc1)NC(C)=O)C(=O)N[C@H](C(=O)N[C@H]1CSSC[C@@H](C(=O)N[C@@H](C)C(=O)N[C@@H](Cc2ccc(O)cc2)C(=O)N[C@H](C(N)=O)C(C)C)NC(=O)[C@H](CO)NC(=O)[C@H](Cc2ccccc2)NC(=O)CNC(=O)[C@H](CC(=O)O)NC(=O)[C@H](CC(=O)O)NC(=O)[C@H](Cc2c[nH]c3ccccc23)NC(=O)[C@H](CCCCN)NC1=O)[C@@H](C)O` [SYN1154] (Ac-YMTCKWDDGFSCAYV-NH2; disulfide 4-12 (inferred)), the “Kd Ratio 7.4/6.0” value (Table 2) is given as 20. Further, the Kd under setting [1] was 1.5 µM and 0.46 µM.

For `CC(=O)N[C@@H](CCCNC(=N)N)C(=O)N[C@@H](Cc1ccc(O)cc1)C(=O)N[C@@H](Cc1ccccc1)C(=O)N[C@@H](C)C(=O)N[C@H](C(=O)N[C@@H](CCCCN)C(=O)N[C@@H](Cc1c[nH]c2ccccc12)C(=O)N[C@@H](CCCCN)C(=O)N[C@@H](Cc1c[nH]cn1)C(=O)NCC(=O)N[C@@H](Cc1c[nH]c2ccccc12)C(=O)N[C@@H](C)C(=O)N[C@@H](CCC(=O)O)C(=O)N[C@@H](CCC(=O)O)C(=O)N[C@H](C(N)=O)C(C)C)[C@@H](C)O` [SYN1558] (Ac-RYFATKWKHGWAEEV-NH2), under setting [2], the equilibrium dissociation constant (Kd) was more than 100 µM.

Regarding `CC(=O)N[C@@H](CCCNC(=N)N)C(=O)N[C@@H](Cc1ccc(O)cc1)C(=O)N[C@@H](Cc1ccccc1)C(=O)N[C@@H]1C(=O)N[C@@H]([C@@H](C)O)C(=O)N[C@@H](CCCCN)C(=O)N[C@@H](Cc2c[nH]c3ccccc23)C(=O)N[C@@H](CCCCN)C(=O)N[C@@H](Cc2c[nH]cn2)C(=O)NCC(=O)N[C@@H](Cc2c[nH]c3ccccc23)C(=O)N[C@H](C(=O)N[C@@H](CCC(=O)O)C(=O)N[C@@H](CCC(=O)O)C(=O)N[C@H](C(N)=O)C(C)C)CSSC1(C)C` [SYN1555], the equilibrium dissociation constant (Kd) under setting [2] is more than 100 µM.

For the compound `CSCC[C@@H]1NC(=O)[C@H](CCC(=O)O)NC(=O)[C@H](CCC(=O)O)NC(=O)[C@H](CC(=O)O)NC(=O)[C@H](Cc2c[nH]c3ccccc23)NC(=O)[C@H](Cc2c[nH]c3ccccc23)NC(=O)[C@@H](NC(=O)[C@H](CCCNC(=N)N)NC(=O)[C@H](CCSC)NC(=O)[C@@H](NC(C)=O)C(C)C)CSSC[C@@H](C(=O)N[C@@H](CCCNC(=N)N)C(=O)N[C@@H](C)C(=O)N[C@@H](Cc2ccccc2)C(N)=O)NC(=O)[C@H](CC(C)C)NC1=O` [SYN1534] (Ac-VMRCWWDEEMLCRAF-NH2; disulfide 4-12 (inferred)), under “Table 2”, the “Kd Ratio 7.4/6.0” value worked out at 125.

Turning to `CSCC[C@H](NC(=O)[C@@H](NC(C)=O)C(C)C)C(=O)N[C@@H](Cc1c[nH]cn1)C(=O)N[C@H]1CSSC[C@@H](C(=O)N[C@@H](CC(=O)O)C(=O)N[C@@H](CCC(N)=O)C(=O)NCC(N)=O)NC(=O)[C@H](CCCCN)NC(=O)[C@H](Cc2ccccc2)NC(=O)[C@H](CCC(=O)O)NC(=O)[C@H](CCC(=O)O)NC(=O)[C@H](CC(=O)O)NC(=O)[C@H](Cc2c[nH]c3ccccc23)NC(=O)[C@H](Cc2ccccc2)NC1=O` [SYN1197] (Ac-VMHCFWDEEFKCDQG-NH2; disulfide 4-12 (inferred)), the “Kd Ratio 7.4/6.0” value (Table 2) came out at 84.

For `CC(=O)N[C@@H](CCCNC(=N)N)C(=O)N[C@@H](Cc1ccc(O)cc1)C(=O)N[C@@H](Cc1ccccc1)C(=O)N[C@H]1CSSC[C@@H](C(=O)N[C@@H](CCC(=O)O)C(=O)N[C@@H](CCC(=O)O)C(=O)N[C@H](C(N)=O)C(C)C)NC(=O)[C@H](Cc2c[nH]c3ccccc23)NC(=O)CNC(=O)[C@H](Cc2c[nH]cn2)NC(=O)[C@H](CCCCN)NC(=O)[C@H](Cc2c[nH]c3ccccc23)NC(=O)[C@H](CCCCN)NC(=O)[C@H](C)NC1=O` [SYN1545] (Ac-RYFCAKWKHGWCEEV-NH2; disulfide 4-12 (inferred)), under setting [2], the equilibrium dissociation constant (Kd) came out at 9.3 µM.

For the compound `CSCC[C@H](NC(=O)[C@H](Cc1ccc(O)cc1)NC(C)=O)C(=O)N[C@H](C(=O)N[C@H]1CSSC[C@@H](C(=O)N[C@@H](CCC(=O)O)C(=O)N[C@@H](Cc2ccc(O)cc2)C(=O)N[C@H](C(N)=O)C(C)C)NC(=O)[C@H](CO)NC(=O)[C@H](Cc2ccccc2)NC(=O)[C@H](C)NC(=O)[C@H](CC(=O)O)NC(=O)[C@H](CC(=O)O)NC(=O)[C@H](Cc2c[nH]c3ccccc23)NC(=O)[C@H](CCCCN)NC1=O)[C@@H](C)O` [SYN1151] (Ac-YMTCKWDDAFSCEYV-NH2; disulfide 4-12 (inferred)), where the note is “Table 2”, the “Kd Ratio 7.4/6.0” value was determined as 25. Besides, the Kd under setting [1] turned out to be 1.5 ± 0.22 µM.

`CSCC[C@H](NC(=O)[C@H](Cc1ccc(O)cc1)NC(C)=O)C(=O)N[C@H](C(=O)N[C@H]1CSSC[C@@H](C(=O)N[C@@H](CCC(=O)O)C(=O)N[C@@H](Cc2ccc(O)cc2)C(=O)N[C@H](C(N)=O)C(C)C)NC(=O)[C@H](CO)NC(=O)[C@H](Cc2ccccc2)NC(=O)CNC(=O)[C@H](CC(=O)O)NC(=O)[C@H](CC(=O)O)NC(=O)[C@H](Cc2c[nH]c3ccccc23)NC(=O)[C@H](C)NC1=O)[C@@H](C)O` [SYN1147] (Ac-YMTCAWDDGFSCEYV-NH2; disulfide 4-12 (inferred)): the “Kd Ratio 7.4/6.0” value (Table 2) is on record as 56.

Take `CSCC[C@H](NC(=O)[C@@H](NC(C)=O)C(C)C)C(=O)N[C@@H](Cc1c[nH]cn1)C(=O)N[C@H]1CSSC[C@@H](C(=O)N[C@@H](CCC(=O)O)C(=O)N[C@@H](CCC(N)=O)C(=O)NCC(N)=O)NC(=O)[C@H](CCCCN)NC(=O)[C@H](Cc2ccccc2)NC(=O)[C@H](CCC(=O)O)NC(=O)[C@H](CCC(=O)O)NC(=O)[C@H](CC(=O)O)NC(=O)[C@H](Cc2c[nH]c3ccccc23)NC(=O)[C@H](Cc2ccccc2)NC1=O` [SYN1258] (Ac-VMHCFWDEEFKCEQG-NH2; disulfide 4-12 (inferred)): under “Table 2”, the “Kd Ratio 7.4/6.0” value came to 65.

Regarding `CC(=O)N[C@@H](CCCNC(=N)N)C(=O)N[C@@H](Cc1ccc(O)cc1)C(=O)N[C@@H](Cc1ccccc1)C(=O)N[C@H]1CSSC(C)(C)[C@@H](C(=O)N[C@@H](CCC(=O)O)C(=O)N[C@@H](CCC(=O)O)C(=O)N[C@H](C(N)=O)C(C)C)NC(=O)[C@H](Cc2c[nH]c3ccccc23)NC(=O)CNC(=O)[C@H](Cc2c[nH]cn2)NC(=O)[C@H](CCCCN)NC(=O)[C@H](Cc2c[nH]c3ccccc23)NC(=O)[C@H](CCCCN)NC(=O)[C@H]([C@@H](C)O)NC1=O` [SYN1556], the dissociation constant (Kd) under setting [2] was more than 100 µM.

For `CSCC[C@H](NC(=O)[C@H](Cc1ccc(O)cc1)NC(C)=O)C(=O)N[C@@H](C)C(=O)N[C@H]1CSSC[C@@H](C(=O)N[C@@H](CCC(=O)O)C(=O)N[C@@H](Cc2ccc(O)cc2)C(=O)N[C@H](C(N)=O)C(C)C)NC(=O)[C@H](CO)NC(=O)[C@H](Cc2ccccc2)NC(=O)CNC(=O)[C@H](CC(=O)O)NC(=O)[C@H](CC(=O)O)NC(=O)[C@H](Cc2c[nH]c3ccccc23)NC(=O)[C@H](CCCCN)NC1=O` [SYN1146] (Ac-YMACKWDDGFSCEYV-NH2; disulfide 4-12 (inferred)), the “Kd Ratio 7.4/6.0” value (Table 2) turned out to be 34.4. Besides, under setting [3], the Kd was 8.6 µM.

Take `CC(=O)N[C@@H](CCCNC(=N)N)C(=O)N[C@@H](Cc1ccc(O)cc1)C(=O)N[C@@H](Cc1ccccc1)C(=O)N[C@@H]1C(=O)N[C@@H]([C@@H](C)O)C(=O)N[C@@H](CCCCN)C(=O)N[C@@H](Cc2c[nH]c3ccccc23)C(=O)N[C@@H](CCCCN)C(=O)N[C@@H](Cc2c[nH]cn2)C(=O)NCC(=O)N[C@@H](Cc2c[nH]c3ccccc23)C(=O)N[C@H](C(=O)N[C@@H](CCC(=O)O)C(=O)N[C@@H](CCC(=O)O)C(=O)N[C@H](C(N)=O)C(C)C)C(C)(C)SSC1(C)C` [SYN1557, Ac-RYF-Pen-TKWKHGW-Pen-EEV-CONH2]: the dissociation constant (Kd) under setting [2] was more than 100 µM.

Turning to `CC(=O)N[C@@H](CCCNC(=N)N)C(=O)N[C@@H](Cc1ccc(O)cc1)C(=O)N[C@@H](Cc1ccccc1)C(=O)N[C@H]1CSSC[C@@H](C(=O)N[C@@H](CCC(=O)O)C(=O)N[C@@H](CCC(=O)O)C(=O)N[C@H](C(N)=O)C(C)C)NC(=O)[C@H](C)NC(=O)CNC(=O)[C@H](Cc2c[nH]cn2)NC(=O)[C@H](CCCCN)NC(=O)[C@H](Cc2c[nH]c3ccccc23)NC(=O)[C@H](CCCCN)NC(=O)[C@H]([C@@H](C)O)NC1=O` [SYN1551] (Ac-RYFCTKWKHGACEEV-NH2; disulfide 4-12), the dissociation constant (Kd) under setting [2] was more than 200 µM.

As to `CSCC[C@@H]1NC(=O)[C@H](CCC(=O)O)NC(=O)[C@H](CCC(=O)O)NC(=O)[C@H](CC(=O)O)NC(=O)[C@H](Cc2c[nH]c3ccccc23)NC(=O)[C@H](Cc2c[nH]c3ccccc23)NC(=O)[C@@H](NC(=O)[C@H](CCCCN)NC(=O)[C@H](CCSC)NC(=O)[C@@H](NC(C)=O)C(C)C)CSSC[C@@H](C(=O)N[C@@H](CCCNC(=N)N)C(=O)N[C@@H](Cc2ccc(O)cc2)C(=O)N[C@@H](Cc2ccccc2)C(N)=O)NC(=O)[C@H](CC(C)C)NC1=O` [SYN1539] (Ac-VMKCWWDEEMLCRYF-NH2; disulfide 4-12 (inferred)), for the setting “Table 2”, the “Kd Ratio 7.4/6.0” value is given as 83. Further, the dissociation constant (Kd) under setting [3] was 8.6 µM.

A word on the Kd: it is a measure of binding affinity in units of concentration.
